In ChEMBL document CHEMBL1201862, “PubChem BioAssay data set” (2004):
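Tested at 5 concentrations; 48 h exposure; 96-well plates; endpoints linearly interpolated, else capped at highest concentration. GI50 is the concentration that inhibits growth by half.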 Calls of active or inactive are those of the source. Rule as the data show it: active = GI50 up to about 1.1 µM and inactive = higher.

Experiments:
Experiment in all cases: inhibition of tumour cell growth, NCI panel, 48 h
MOLT-4 = test system: MOLT-4
DU-145 = test system: DU-145
SNB-19 = test system: SNB-19
SK-MEL-28 = test system: SK-MEL-28
HT-29 = test system: HT-29
BT-549 = test system: BT-549
NCI-H522 = test system: NCI-H522
OVCAR-8 = test system: OVCAR-8
786-0 = test system: 786-0
SK-OV-3 = test system: SK-OV-3
OVCAR-4 = test system: OVCAR-4
KM12 = test system: KM12
MDA-MB-435 = test system: MDA-MB-435
SK-MEL-2 = test system: SK-MEL-2
SF-295 = test system: SF-295
TK-10 = test system: TK-10
HOP-92 = test system: HOP-92
LOX IMVI = test system: LOX IMVI
RXF 393 = test system: RXF 393
SW-620 = test system: SW-620

| SMILES | GI50 (MOLT-4) | GI50 (DU-145) | GI50 (SNB-19) | GI50 (SK-MEL-28) | GI50 (HT-29) | GI50 (BT-549) | GI50 (NCI-H522) | GI50 (OVCAR-8) | GI50 (786-0) | GI50 (SK-OV-3) | GI50 (OVCAR-4) | GI50 (KM12) | GI50 (MDA-MB-435) | GI50 (SK-MEL-2) | GI50 (SF-295) | GI50 (TK-10) | GI50 (HOP-92) | GI50 (LOX IMVI) | GI50 (RXF 393) | GI50 (SW-620) |
| --- | --- | --- | --- | --- | --- | --- | --- | --- | --- | --- | --- | --- | --- | --- | --- | --- | --- | --- | --- | --- |
| COC(COC(N)=O)C1=C(N2CC2)C(=O)C(C)=C(N2CC2)C1=O (stereo not given) [CARBOQUONE] | 0.0418 µM (active) | < 0.01 µM (active) | 0.0646 µM (active) | 0.172 µM (active) | 0.0342 µM (active) | 0.103 µM (active) | 0.0377 µM (active) | 0.0318 µM (active) | 0.0201 µM (active) | 0.0718 µM (active) | 0.126 µM (active) | 0.122 µM (active) | 0.0359 µM (active) | 0.193 µM (active) | 0.0178 µM (active) | 0.239 µM (active) | 0.219 µM (active) | < 0.0144 µM (active) | 0.107 µM (active) | 0.0302 µM (active) |
| COC1=CC(=O)c2c(cc(COP(=O)(OCC3OC(n4cc(F)c(=O)[nH]c4=O)CC3O)N(C)CCCCCl)n2C)C1=O (stereo not given) | 0.0527 µM (active) | 0.321 µM (active) | 0.951 µM (active) | – | 0.233 µM (active) | 1.56 µM (inactive) | 0.495 µM (active) | 0.0593 µM (active) | 0.186 µM (active) | – | 1.82 µM (inactive) | 10 µM (inactive) | 1.04 µM (active) | 17.7 µM (inactive) | < 0.0132 µM (active) | 1.81 µM (inactive) | 0.137 µM (active) | 0.0148 µM (active) | 0.0478 µM (active) | 0.141 µM (active) |
| Cc1cc(=O)oc2cc(OC(=O)N(C)C)c(Cl)cc12 | > 100 µM (inactive) | > 100 µM (inactive) | 71.4 µM (inactive) | > 100 µM (inactive) | > 100 µM (inactive) | > 100 µM (inactive) | 57.7 µM (inactive) | > 100 µM (inactive) | 87.5 µM (inactive) | – | > 100 µM (inactive) | > 100 µM (inactive) | 65 µM (inactive) | 82.6 µM (inactive) | > 10 µM (inactive) | > 100 µM (inactive) | 82 µM (inactive) | 85.5 µM (inactive) | 2 µM (inactive) | > 100 µM (inactive) |
| Cc1ccc(Sc2ccccc2C23OC(C)(C4C(=O)N(c5ccccc5)C(=O)C42)N(C)C3=O)cc1 (stereo not given) | > 100 µM (inactive) | > 100 µM (inactive) | > 100 µM (inactive) | > 100 µM (inactive) | > 100 µM (inactive) | > 100 µM (inactive) | > 100 µM (inactive) | > 100 µM (inactive) | 96.6 µM (inactive) | > 100 µM (inactive) | 84.5 µM (inactive) | > 100 µM (inactive) | > 100 µM (inactive) | > 100 µM (inactive) | > 100 µM (inactive) | > 100 µM (inactive) | 42.8 µM (inactive) | > 100 µM (inactive) | 85.7 µM (inactive) | > 100 µM (inactive) |
| C[C@]12CC[C@H](O)CC1=CC[C@@H]1[C@@H]2CC[C@]2(C)C(=O)/C(=C/c3ccc([N+](=O)[O-])cc3)C[C@@H]12 | > 100 µM (inactive) | 13.4 µM (inactive) | 10.4 µM (inactive) | 22.1 µM (inactive) | 25.5 µM (inactive) | 23.3 µM (inactive) | 12.2 µM (inactive) | 3.15 µM (inactive) | 3.43 µM (inactive) | 8.93 µM (inactive) | 8 µM (inactive) | 33.7 µM (inactive) | 52.5 µM (inactive) | 17.7 µM (inactive) | 6.65 µM (inactive) | – | 9.16 µM (inactive) | 10 µM (inactive) | 8.95 µM (inactive) | 47.4 µM (inactive) |
| C[n+]1c(-c2ccc(/C=N\N3CCN(/N=C/c4ccc(-c5cn6ccccc6[n+]5C)cc4)CC3)cc2)cn2ccccc21 | 68.7 µM (inactive) | 34.4 µM (inactive) | 32 µM (inactive) | – | > 100 µM (inactive) | 35 µM (inactive) | 83.9 µM (inactive) | > 100 µM (inactive) | 21.9 µM (inactive) | > 100 µM (inactive) | 74.6 µM (inactive) | 55.3 µM (inactive) | 34.5 µM (inactive) | 56.8 µM (inactive) | 19.1 µM (inactive) | 63.4 µM (inactive) | 26.4 µM (inactive) | > 100 µM (inactive) | 24.5 µM (inactive) | 76.6 µM (inactive) |
| Cc1nc2sccn2c1C(=O)OCCOCCOCCOCCOC(=O)c1c(C)nc2sccn12 | 18.2 µM (inactive) | > 100 µM (inactive) | > 100 µM (inactive) | 90.2 µM (inactive) | > 100 µM (inactive) | 34.6 µM (inactive) | 48.8 µM (inactive) | 39.6 µM (inactive) | > 100 µM (inactive) | – | 71.8 µM (inactive) | 49.7 µM (inactive) | 45.4 µM (inactive) | 76.4 µM (inactive) | 63.4 µM (inactive) | > 100 µM (inactive) | > 100 µM (inactive) | 57.3 µM (inactive) | > 100 µM (inactive) | > 100 µM (inactive) |
| S=c1sc2ccccc2n1CN1CCN(Cc2ccccc2)CC1 | > 100 µM (inactive) | > 100 µM (inactive) | > 100 µM (inactive) | – | > 100 µM (inactive) | > 100 µM (inactive) | > 100 µM (inactive) | > 100 µM (inactive) | > 100 µM (inactive) | > 100 µM (inactive) | > 100 µM (inactive) | > 100 µM (inactive) | > 100 µM (inactive) | > 100 µM (inactive) | > 100 µM (inactive) | > 10 µM (inactive) | > 100 µM (inactive) | > 100 µM (inactive) | > 100 µM (inactive) | > 100 µM (inactive) |
| CN1C(=O)C(O)CC1c1ccccc1C(F)(F)F (stereo not given) | > 100 µM (inactive) | > 100 µM (inactive) | > 100 µM (inactive) | > 100 µM (inactive) | > 100 µM (inactive) | > 100 µM (inactive) | > 100 µM (inactive) | > 100 µM (inactive) | > 100 µM (inactive) | > 100 µM (inactive) | > 100 µM (inactive) | > 100 µM (inactive) | > 100 µM (inactive) | > 100 µM (inactive) | > 100 µM (inactive) | – | > 100 µM (inactive) | > 100 µM (inactive) | > 100 µM (inactive) | > 100 µM (inactive) |
| CC(CO)CCC(O)C(C)(O)C1CCC2(O)C3=CC(=O)C4CC(O)C(O)CC4(C)C3CCC12C (stereo not given) | > 100 µM (inactive) | > 100 µM (inactive) | > 100 µM (inactive) | > 100 µM (inactive) | > 100 µM (inactive) | > 100 µM (inactive) | > 100 µM (inactive) | > 100 µM (inactive) | > 100 µM (inactive) | > 100 µM (inactive) | > 100 µM (inactive) | > 100 µM (inactive) | > 100 µM (inactive) | > 100 µM (inactive) | > 100 µM (inactive) | – | > 100 µM (inactive) | > 100 µM (inactive) | > 100 µM (inactive) | > 100 µM (inactive) |
| CCOC(=O)c1nc2ccc(C(F)(F)F)cc2nc1Nc1ccc(Cl)c(Cl)c1 | > 100 µM (inactive) | 70.6 µM (inactive) | 42.5 µM (inactive) | > 100 µM (inactive) | > 100 µM (inactive) | > 100 µM (inactive) | > 100 µM (inactive) | 74.5 µM (inactive) | 75.3 µM (inactive) | > 100 µM (inactive) | – | 75.9 µM (inactive) | > 100 µM (inactive) | – | 30.3 µM (inactive) | > 100 µM (inactive) | > 100 µM (inactive) | > 100 µM (inactive) | > 100 µM (inactive) | > 100 µM (inactive) |
| COc1ccc(OC)c(-c2cn3c(n2)sc2ccccc23)c1 | > 100 µM (inactive) | > 100 µM (inactive) | > 100 µM (inactive) | – | 8.26 µM (inactive) | > 100 µM (inactive) | > 100 µM (inactive) | 94.8 µM (inactive) | 58.5 µM (inactive) | > 100 µM (inactive) | > 100 µM (inactive) | > 100 µM (inactive) | > 100 µM (inactive) | > 100 µM (inactive) | 95.3 µM (inactive) | > 100 µM (inactive) | 15.8 µM (inactive) | > 100 µM (inactive) | > 100 µM (inactive) | > 100 µM (inactive) |
| Oc1c(NCn2nc(CCCCCCCCc3nn(CNc4ccc5ccccc5c4O)c(=S)o3)oc2=S)ccc2ccccc12 | > 100 µM (inactive) | > 100 µM (inactive) | > 100 µM (inactive) | 49.7 µM (inactive) | 73.6 µM (inactive) | > 100 µM (inactive) | 49 µM (inactive) | – | 63.2 µM (inactive) | > 100 µM (inactive) | 76.2 µM (inactive) | 28.2 µM (inactive) | 12.5 µM (inactive) | 42.8 µM (inactive) | 33.7 µM (inactive) | 68.1 µM (inactive) | > 100 µM (inactive) | – | 30.1 µM (inactive) | 35.6 µM (inactive) |
| CN(C)CS/C(N)=N\C(O)C(Cl)(Cl)Cl (stereo not given) | > 100 µM (inactive) | > 100 µM (inactive) | > 100 µM (inactive) | > 100 µM (inactive) | > 100 µM (inactive) | > 100 µM (inactive) | > 100 µM (inactive) | > 100 µM (inactive) | > 100 µM (inactive) | – | > 100 µM (inactive) | > 100 µM (inactive) | > 100 µM (inactive) | > 100 µM (inactive) | > 100 µM (inactive) | > 100 µM (inactive) | > 100 µM (inactive) | > 100 µM (inactive) | > 100 µM (inactive) | > 100 µM (inactive) |
